Data published in patent US11084796B2, “Heterocyclic derivatives for the treatment of RSV” (GEORGIA STATE UNIVERSITY RESEARCH FOUNDATION, INC., priority 2016, dated 2021).

system: RSV; assay: Potency range (EC50 values) of C series compounds against RSV; type: cell-based; details: human respiratory syncytial virus
Procedure: Two-fold serial dilutions of hit candidates were prepared in 384-well plates in three replicates each using the Nimbus liquid handler. BEAS-2B cells (8×10^3/well) were then plated as before, serial dilutions transferred using the pin-tool, and cells infected with recombinant virus strains expressing distinct luciferase reporter proteins or left uninfected for cell viability assessment. Reporter signals were recorded as outlined above. To determine cell viability, PrestoBlue substrate (life technologies) was added after 40-hour incubation of cells at 37° C. (5 μl/well) and top-read fluorescence (excitation 560 nm; emission 590 nm; instrument gain 85) recorded after 45 minutes of incubation at 37° C. using the H1 synergy plate reader. Four-parameter variable slope regression modeling was applied to determine 50% active (EC50) and toxic (CC50) concentrations.

Row | SMILES | EC50
1 | O=C(CN1C(=O)C(C(=O)NC2CCOCC2)Sc2ccccc21)NC1CCCCC1 (centres unmarked) [AVG-083] | > 20 µM
2 | CC(C)(NC(=O)CN1C(=O)C(C(=O)N2CCCCC2)Sc2ccccc21)c1ccccc1 (centres unmarked) [AVG-139] | 1 to 10 µM
3 | CN1CCN(C(=O)C2Sc3ccccc3N(CC(=O)NC3CCCCC3)C2=O)CC1 (centres unmarked) [AVG-056] | 10 to 20 µM
4 | O=C(CN1C(=O)C(C(=O)NC2CCNCC2)Sc2ccccc21)NC1CCCCC1 (centres unmarked) [AVG-084] | > 20 µM
5 | CN1CCC(NC(=O)C2Sc3ccccc3N(CC(=O)NC3CCCCC3)C2=O)CC1 (centres unmarked) [AVG-085] | > 20 µM
6 | O=C(C1Sc2ccccc2N(Cc2nc3ccccc3[nH]2)C1=O)N1CCCCC1 (centres unmarked) [AVG-112] | 10 to 20 µM
7 | O=C(CN1C(=O)C(C(=O)N2CCCCC2)Sc2cc(Br)ccc21)NC1CCCCC1 (centres unmarked) [AVG-149] | 1 to 10 µM
8 | O=C(CN1C(=O)C(C(=O)N2CCCCC2)Sc2cc(Cl)ccc21)NC1CCCCC1 (centres unmarked) [AVG-062] | 0.1 to 1 µM
9 | O=C(CN1C(=O)C(C(=O)N2CCCCC2)Sc2ccccc21)NC1CCNCC1 (centres unmarked) [AVG-046] | > 20 µM
10 | O=C(CN1C(=O)C(C(=O)N2CCCCC2)Sc2ccccc21)NC1CC1 (centres unmarked) [AVG-114] | > 20 µM
11 | O=C(CN1C(=O)C(C(=O)N2CCCCC2)Sc2ccccc21)Nc1ccccc1Cl (centres unmarked) [AVG-220] | 1 to 10 µM
12 | CN(C(=O)CN1C(=O)C(C(=O)N2CCCCC2)Sc2ccccc21)C1CCCCC1 (centres unmarked) [AVG-059] | > 20 µM
13 | CC(C)(NC(=O)C1Sc2ccccc2N(CC(=O)NC2CCCCC2)C1=O)c1ccccc1 (centres unmarked) [AVG-144] | 1 to 10 µM
14 | CC(C)c1ccc2c(c1)SC(C(=O)N1CCCCC1)C(=O)N2CC(=O)NC1CCCCC1 (centres unmarked) [AVG-153] | 1 to 10 µM
15 | CC(C)NC(=O)CN1C(=O)C(C(=O)N2CCCCC2)Sc2ccccc21 (centres unmarked) [AVG-048] | > 20 µM
16 | O=C(CN1C(=O)C(C(=O)NC2CCCCC2)Sc2cc(Cl)ccc21)NC1CCCCC1 (centres unmarked) [AVG-218] | 1 to 10 µM
17 | COc1ccccc1NC(=O)CN1C(=O)C(C(=O)N2CCCCC2)Sc2ccccc21 (centres unmarked) [AVG-221] | 1 to 10 µM
18 | O=C(C1Sc2ccccc2N(Cc2nc3ccccc3o2)C1=O)N1CCCCC1 (centres unmarked) [AVG-111] | > 20 µM
19 | CC(NC(=O)C1Sc2ccccc2N(CC(=O)NC2CCCCC2)C1=O)c1ccccc1 (centres unmarked) [AVG-143] | > 20 µM
20 | O=C(CN1C(=O)C(C(=O)N2CCNCC2)Sc2ccccc21)NC1CCCCC1 (centres unmarked) [AVG-055] | > 20 µM

Row | SMILES | EC50
21 | O=C(CN1C(=O)C(C(=O)N2CCCCC2)Sc2cc(C(F)(F)F)ccc21)NC1CCCCC1 (centres unmarked) [AVG-156] | 1 to 10 µM
22 | O=C(CN1C(=O)C(C(=O)N2CCCCC2)Sc2cccc(Cl)c21)NC1CCCCC1 (centres unmarked) [AVG-064] | 10 to 20 µM
23 | O=C(CN1C(=O)C(C(=O)N2CCCCC2)Sc2c(Cl)cccc21)NC1CCCCC1 (centres unmarked) [AVG-061] | 1 to 10 µM
24 | Cc1ccccc1NC(=O)CN1C(=O)C(C(=O)N2CCCCC2)Sc2ccccc21 (centres unmarked) [AVG-052] | 1 to 10 µM
25 | Cc1cccc(NC(=O)CN2C(=O)C(C(=O)N3CCCCC3)Sc3ccccc32)c1 (centres unmarked) [AVG-053] | > 20 µM
26 | COc1cccc2c1N(CC(=O)NC1CCCCC1)C(=O)C(C(=O)N1CCCCC1)S2 (centres unmarked) [AVG-148] | 10 to 20 µM
27 | CN1CCC(NC(=O)CN2C(=O)C(C(=O)N3CCCCC3)Sc3ccccc32)CC1 (centres unmarked) [AVG-047] | > 20 µM
28 | O=C(CN1C(=O)C(C(=O)N2CCCCC2)Sc2ccccc21)NC1CCOCC1 (centres unmarked) [AVG-045] | > 20 µM
29 | CC(C)(C)NC(=O)CN1C(=O)C(C(=O)N2CCCCC2)Sc2ccccc21 (centres unmarked) [AVG-140] | 1 to 10 µM
30 | O=C(CN1C(=O)C(C(=O)N2CCCCC2)Sc2cc(F)ccc21)NC1CCCCC1 (centres unmarked) [AVG-150] | 1 to 10 µM
31 | O=C(CN1C(=O)C(C(=O)NCc2ccccc2)Sc2ccccc21)NC1CCCCC1 (centres unmarked) [AVG-142] | 10 to 20 µM
32 | CN(C)C(=O)C1Sc2ccccc2N(CC(=O)NC2CCCCC2)C1=O (centres unmarked) [AVG-057] | 1 to 10 µM
33 | CC(C)(C)NC(=O)C1Sc2ccccc2N(CC(=O)NC2CCCCC2)C1=O (centres unmarked) [AVG-141] | 1 to 10 µM
34 | COc1ccc2c(c1)N(CC(=O)NC1CCCCC1)C(=O)C(C(=O)N1CCCCC1)S2 (centres unmarked) [AVG-147] | 10 to 20 µM
35 | O=C(CN1C(=O)C(C(=O)NC2CCCCC2)Sc2ccccc21)NC1CCCCC1 (centres unmarked) [AVG-058] | 1 to 10 µM
36 | Cc1ccccc1NC(=O)CN1C(=O)C(C(=O)N2CCCCC2)Sc2cc(Cl)ccc21 (centres unmarked) [AVG-219] | 0.1 to 1 µM
37 | CCCCNC(=O)C1Sc2ccccc2N(CC(=O)NC2CCCCC2)C1=O (centres unmarked) [AVG-086] | 10 to 20 µM
38 | CC1CCC(NC(=O)CN2C(=O)C(C(=O)N3CCCCC3)Sc3ccccc32)CC1 (centres unmarked) [AVG-049] | 1 to 10 µM
39 | O=C(CN1C(=O)C(C(=O)N2CCCCC2)Sc2ccccc21)N1CCCCC1 (centres unmarked) [AVG-060] | > 20 µM
40 | CC(C)NC(=O)C1Sc2ccccc2N(CC(=O)NC2CCCCC2)C1=O (centres unmarked) [AVG-087] | 10 to 20 µM

Row | SMILES | EC50
41 | C=C(C)c1ccc2c(c1)SC(C(=O)N1CCCCC1)C(=O)N2CC(=O)NC1CCCCC1 (centres unmarked) [AVG-215] | 1 to 10 µM
42 | COc1cccc2c1SC(C(=O)N1CCCCC1)C(=O)N2CC(=O)NC1CCCCC1 (centres unmarked) [AVG-145] | 1 to 10 µM
43 | O=C(CN1C(=O)C(C(=O)N2CCCCC2)Sc2ccccc21)NC1CCCCC1 (centres unmarked) [AVG-044, N-cyclohexyl-2-(3-oxo-2-(piperidine-1-carbonyl)-2H-benzo[b][1,4]thiazin-4(3H)-yl) acetamide] | 1 to 10 µM
44 | Cc1ccc2c(c1)SC(C(=O)N1CCCCC1)C(=O)N2CC(=O)NC1CCCCC1 (centres unmarked) [AVG-151] | 10 to 20 µM
45 | CC(NC(=O)CN1C(=O)C(C(=O)N2CCCCC2)Sc2ccccc21)c1ccccc1 (centres unmarked) [AVG-138] | 1 to 10 µM
46 | O=C(CN1C(=O)C(C(=O)N2CCCCC2)Sc2cc(-c3ccccc3)ccc21)NC1CCCCC1 (centres unmarked) [AVG-154] | > 20 µM
47 | CC1(C)CCC(NC(=O)CN2C(=O)C(C(=O)N3CCCCC3)Sc3ccccc32)CC1 (centres unmarked) [AVG-050] | 1 to 10 µM
48 | NC(=O)CN1C(=O)C(C(=O)N2CCCCC2)Sc2ccccc21 (centres unmarked) [AVG-113] | > 20 µM
49 | O=C(CN1C(=O)C(C(=O)N2CCCCC2)Sc2cnccc21)NC1CCCCC1 (centres unmarked) [AVG-155] | 1 to 10 µM
50 | O=C(CN1C(=O)C(C(=O)N2CCCCC2)Sc2ccccc21)NCC1CCCCC1 (centres unmarked) [AVG-216] | 1 to 10 µM
51 | O=C(CN1C(=O)C(C(=O)N2CCCCC2)Sc2ccccc21)Nc1ccncc1 (centres unmarked) [AVG-224] | 10 to 20 µM
52 | O=C(CN1C(=O)C(C(=O)N2CCCCC2)Sc2ccc(Cl)cc21)NC1CCCCC1 (centres unmarked) [AVG-063] | 1 to 10 µM
53 | COc1ccc2c(c1)SC(C(=O)N1CCCCC1)C(=O)N2CC(=O)NC1CCCCC1 (centres unmarked) [AVG-146] | 1 to 10 µM
54 | O=C(CN1C(=O)C(C(=O)N2CCCCC2)Sc2ccccc21)Nc1cccnc1 (centres unmarked) [AVG-223] | 10 to 20 µM
55 | O=C(CN1C(=O)C(C(=O)N2CCOCC2)Sc2ccccc21)NC1CCCCC1 (centres unmarked) [AVG-054, N-cyclohexyl-2-(2-(morpholine-4-carbonyl)-3-oxo-2H-benzo[b][1,4]thiazin-4(3H)-yl) acetamide] | 1 to 10 µM
56 | CCc1ccc2c(c1)SC(C(=O)N1CCCCC1)C(=O)N2CC(=O)NC1CCCCC1 (centres unmarked) [AVG-152] | 1 to 10 µM
57 | O=C(CN1C(=O)C(C(=O)N2CCCCC2)Sc2ccccc21)NCc1ccccc1 (centres unmarked) [AVG-137] | 1 to 10 µM
58 | O=C(CN1C(=O)C(C(=O)N2CCCCC2)Sc2ccccc21)NC1CCCC1 (centres unmarked) [AVG-051] | 1 to 10 µM
59 | O=C(CN1C(=O)C(C(=O)N2CCCCC2)Sc2cc(Cl)ccc21)NCC1CCCCC1 (centres unmarked) [AVG-217] | 1 to 10 µM
